The structures appear in SMILES notation. pEC50: −log10 of the molar value.

This assay addresses T1, human Farnesoid X Receptor (FXR) ligand binding domain (GST-FXR LBD) (Homo sapiens, UniProt Q96RI1).
T1 construct: purchased Invitrogen
T1 sequence (Q96RI1 193-472 isoform Q96RI1-2): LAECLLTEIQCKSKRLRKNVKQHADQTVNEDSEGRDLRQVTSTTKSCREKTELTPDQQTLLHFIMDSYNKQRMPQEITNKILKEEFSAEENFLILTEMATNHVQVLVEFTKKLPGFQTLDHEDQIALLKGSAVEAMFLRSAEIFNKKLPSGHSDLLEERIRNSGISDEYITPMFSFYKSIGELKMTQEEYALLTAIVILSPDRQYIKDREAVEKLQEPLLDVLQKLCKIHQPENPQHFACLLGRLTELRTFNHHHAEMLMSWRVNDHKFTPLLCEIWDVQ
Nature of the assay: Human GST-FXR LBD co-activator interaction assay (HTRF). Type of assay: biochemical. The note with it: GST-FXR LBD / biotin-SRC-1 peptide FRET; response relative to GW4064; read-out: FXR Co-activator interaction assay (EC50). In outline: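 FRET (HTRF) read-out of ligand-induced binding between GST-FXR LBD and an SRC-1 peptide, detected with anti-GST cryptate and streptavidin-XL665 in buffer with 50 mM KF. Response % was normalized to DMSO and to the maximal GW4064 response. EC50 came from a four-parameter fit.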
Regarding `NC(=O)c1ccc(N2C3CC[C@H]2CC(OCc2c(-c4ccccc4OC(F)F)noc2C2CC2)C3)c(F)c1` (stereo partly drawn) [Example 27], the pEC50 is 8.70. Then `O=C(O)c1nsc2cc(N3C4CC[C@H]3CC(OCc3c(-c5ccccc5OC(F)(F)F)noc3C3CC3)C4)ccc12` (stereo partly drawn) [Example 28-1B, 6-(3-((5-Cyclopropyl-3-(2-(trifluoromethoxy)phenyl)isoxazol-4-yl)methoxy)-8-azabicyclo[3.2.1]octan-8-yl)benzo[d]isothiazole-3-carboxylic acid], with 9.22; and `O=C(O)c1cnc2ccc(N3C4CC[C@H]3CC(OCc3c(-c5ccccc5OC(F)(F)F)noc3C3CC3)C4)cn12` (stereo partly drawn) [Example 28-2], with 7.80. Then `O=C(O)c1cnc2cc(N3C4CC[C@H]3CC(OCc3c(-c5ccccc5OC(F)(F)F)noc3C3CC3)C4)ccc2c1` (stereo partly drawn) [Example 28-3], with 9.10; and `Cn1c(C(=O)O)cc2ccc(N3C4CC[C@H]3CC(OCc3c(-c5ccccc5OC(F)(F)F)noc3C3CC3)C4)cc21` (stereo partly drawn) [Example 28-4], with 8.70; and `O=C(O)c1ccc(N2C3CC[C@H]2CC(OCc2c(-c4ccccc4OC(F)(F)F)noc2C2CC2)C3)cc1` (stereo partly drawn) [Example 28-6], with 8.77. As to `O=C(O)C1(c2ccc(N3C4CC[C@H]3CC(OCc3c(-c5ccccc5OC(F)(F)F)noc3C3CC3)C4)cc2)CC1` (stereo partly drawn) [Example 28-7], the pEC50 was 7.68.

Take `Cc1c(N2[C@@H]3CC[C@H]2C[C@@H](OCc2c(-c4ccccc4C4CC4)noc2C2CC2)C3)ccc2oc(C(=O)O)cc12` [Example 28-8]: the pEC50 was 7.98. Turning to `Cc1c(N2C3CC[C@H]2CC(OCc2c(-c4ccccc4Cl)noc2C2CC2)C3)ccc2oc(C(=O)O)cc12` (stereo partly drawn) [Example 28-9], the pEC50 is 9.52.

Regarding `Cc1c(N2C3CC[C@H]2CC(OCc2c(-c4c(F)cccc4F)noc2C2CC2)C3)ccc2oc(C(=O)O)cc12` (stereo partly drawn) [Example 28-10], the pEC50 is 9.05. Then `Cc1c(N2C3CC[C@H]2CC(OCc2c(-c4ccccc4OC(F)(F)F)noc2C2CC2)C3)ccc2oc(C(=O)O)cc12` (stereo partly drawn) [Example 28-11], with 8.89. The result for `Cc1c(N2C3CC[C@H]2CC(OCc2c(-c4ccccc4C(F)(F)F)noc2C2CC2)C3)ccc2oc(C(=O)O)cc12` (stereo partly drawn) [Example 28-12] reads 8.55; that for `O=C(O)c1cc2cc(N3C4CC[C@H]3CC(OCc3c(-c5ccccc5OC(F)(F)F)noc3C3CC3)C4)ccc2s1` (stereo partly drawn) [Example 28-13], 8.13; that for `O=C(O)c1cc2cc(N3C4CC[C@H]3CC(OCc3c(-c5ccccc5OC(F)(F)F)noc3C3CC3)C4)ccc2o1` (stereo partly drawn) [Example 28-14], 8.34. Then `O=C(O)c1cc2ccc(N3C4CC[C@H]3CC(OCc3c(-c5ccccc5OC(F)(F)F)noc3C3CC3)C4)cc2o1` (stereo partly drawn) [Example 28-15], with 8.47. Regarding `Cn1nc(C(=O)O)c2cc(N3C4CC[C@H]3CC(OCc3c(-c5ccccc5OC(F)(F)F)noc3C3CC3)C4)ccc21` (stereo partly drawn) [Example 28-16], the pEC50 is 7.20. `O=C(O)c1cnc2c(N3C4CC[C@H]3CC(OCc3c(-c5ccccc5OC(F)(F)F)noc3C3CC3)C4)cccc2c1` (stereo partly drawn) [Example 28-17]: the pEC50 is 8.01. Then `O=C(O)c1noc2cc(N3C4CC[C@H]3CC(OCc3c(-c5ccccc5OC(F)(F)F)noc3C3CC3)C4)ccc12` (stereo partly drawn) [Example 28-18], with 8.09. The result for `Cn1c(C(=O)O)cc2cc(N3C4CC[C@H]3CC(OCc3c(-c5ccccc5OC(F)(F)F)noc3C3CC3)C4)ccc21` (stereo partly drawn) [Example 28-19] reads 8.82; that for `O=C(O)c1nsc2cc(N3C4CC[C@H]3CC(OCc3c(-c5ccccc5C(F)(F)F)noc3C3CC3)C4)ccc12` (stereo partly drawn) [Example 28-21], 8.66. Regarding `O=C(O)c1nsc2cc(N3[C@@H]4CC[C@H]3C[C@@H](OCc3c(-c5ccccc5C5CC5)noc3C3CC3)C4)ccc12` [Example 28-22], the pEC50 is 9.70. The result for `O=C(O)c1nsc2cc(N3C4CC[C@H]3CC(OCc3c(-c5ccccc5OC(F)(F)F)noc3C3CC3)C4)c(F)cc12` (stereo partly drawn) [Example 28-23] reads 9.30; that for `O=C(O)c1cn2ccc(N3C4CCC3CC(OCc3c(-c5ccccc5OC(F)(F)F)noc3C3CC3)C4)cc2n1` (stereo not drawn) [Example 28-24], 7.62; that for `Cn1nc(C(=O)O)c2ccc(N3C4CC[C@H]3CC(OCc3c(-c5ccccc5OC(F)(F)F)noc3C3CC3)C4)cc21` (stereo partly drawn) [Example 28-25], 8.96. For `Cn1nc(C(=O)O)c2ccc(N3[C@@H]4CC[C@H]3C[C@@H](OCc3c(-c5ccccc5C(F)(F)F)noc3C3CC3)C4)cc21` [Example 28-26], the negative-log EC50 (pEC50) is 8.92. With `O=C(O)c1cc(F)c2nc(N3C4CC[C@H]3CC(OCc3c(C5C6CCCC65)noc3C3CC3)C4)sc2c1` (stereo partly drawn) [Example 29-1], the pEC50 is 7.85.

Take `CC12CCCC1C2c1noc(C2CC2)c1COC1CC2CC[C@@H](C1)N2c1nc2c(F)cc(C(=O)O)cc2s1` (stereo partly drawn) [Example 29-2]: the pEC50 was 8.10. Then `O=C(O)c1cc(F)c2nc(N3[C@@H]4CC[C@H]3C[C@@H](OCc3c(C5CCCC5)noc3C3CC3)C4)sc2c1` [Example 29-3], with 7.96; and `O=C(O)c1cc(F)c2nc(N3[C@@H]4CC[C@H]3C[C@@H](OCc3c(C5CC6(CC6)C5)noc3C3CC3)C4)sc2c1` [Example 29-4], with 7.96; and `C[C@@H]1C(c2noc(C3CC3)c2COC2CC3CC[C@@H](C2)N3c2nc3c(F)cc(C(=O)O)cc3s2)C[C@@H]2C[C@H]1C2(C)C` (stereo partly drawn) [Example 29-5], with 8.22. The result for `O=C(O)c1cc(F)c2nc(N3C4CC[C@H]3CC(OCc3c(C5CCCCC56CC6)noc3C3CC3)C4)sc2c1` (stereo partly drawn) [Example 29-6] reads 8.70; that for `O=C(O)c1cc(F)c2nc(N3C4CC[C@H]3CC(OCc3c(C5CCC6CC6C5)noc3C3CC3)C4)sc2c1` (stereo partly drawn) [Example 29-7], 8.30.

Turning to `Cc1ccccc1-c1noc(C2CC2)c1COC1CC2CC[C@@H](C1)N2c1nc2c(F)cc(C(=O)O)cc2s1` (stereo partly drawn) [Example 30-1], the pEC50 is 9.52.

Consider `Cc1ccccc1-c1noc(C2CC2)c1CO[C@H]1C[C@H]2CC[C@@H](C1)N2c1ccc(C(=O)O)cn1` [Example 30-2], for which the pEC50 was 8.00. Then `Cc1cc(C(=O)O)nc(N2C3CC[C@H]2CC(OCc2c(-c4ccccc4C)noc2C2CC2)C3)n1` (stereo partly drawn) [Example 30-3], with 7.82.

With `Cc1ccccc1-c1noc(C2CC2)c1CO[C@H]1C[C@H]2CC[C@@H](C1)N2c1nc2ccc(C(=O)O)cc2s1` [Example 30-4], the pEC50 was 9.15. Then `COc1cc(C(=O)O)cc2sc(N3C4CC[C@H]3CC(OCc3c(-c5ccccc5C)noc3C3CC3)C4)nc12` (stereo partly drawn) [Example 30-5], with 9.40; and `O=C(O)c1ccc2nc(N3[C@@H]4CC[C@H]3C[C@@H](OCc3c(-c5ccc(F)cc5)noc3C3CC3)C4)sc2c1` [Example 30-6], with 7.38. In the case of `COc1cc(C(=O)O)cc2sc(N3C4CC[C@H]3CC(OCc3c(-c5ccc(F)cc5)noc3C3CC3)C4)nc12` (stereo partly drawn) [Example 30-7], the pEC50 was 7.74. On to `COc1cc(C(=O)O)cc2sc(N3[C@@H]4CC[C@H]3C[C@@H](OCc3c(-c5cccc(F)c5)noc3C3CC3)C4)nc12` [Example 30-8], for which the negative logarithm of the EC50 (pEC50) is 7.68.

Regarding `O=C(O)c1ccc(N2[C@@H]3CC[C@H]2C[C@@H](OCc2c(-c4cccc(F)c4)noc2C2CC2)C3)nc1` [Example 30-9], the negative logarithm of the EC50 (pEC50) was 6.47. Then `Cc1cc(C(=O)O)nc(N2C3CC[C@H]2CC(OCc2c(-c4cccc(F)c4)noc2C2CC2)C3)n1` (stereo partly drawn) [Example 30-10], with 6.32; and `COc1cc(C(=O)O)cc2sc(N3C4CC[C@H]3CC(OCc3c(-c5c(C)cccc5F)noc3C3CC3)C4)nc12` (stereo partly drawn) [Example 30-11], with 9.52. The result for `Cc1cccc(F)c1-c1noc(C2CC2)c1COC1CC2CC[C@@H](C1)N2c1ccc(C(=O)O)cn1` (stereo partly drawn) [Example 30-12] reads 8.30; that for `Cc1cc(C(=O)O)nc(N2[C@@H]3CC[C@H]2C[C@@H](OCc2c(-c4c(C)cccc4F)noc2C2CC2)C3)n1` [Example 30-13], 8.22. Then `COc1cc(C(=O)O)cc2sc(N3C4CC[C@H]3CC(OCc3c(-c5c(C)cccc5C)noc3C3CC3)C4)nc12` (stereo partly drawn) [Example 30-14], with 8.92; and `Cc1cccc(C)c1-c1noc(C2CC2)c1COC1CC2CC[C@@H](C1)N2c1ccc(C(=O)O)cn1` (stereo partly drawn) [Example 30-15], with 8.05.

As to `Cc1cc(C(=O)O)nc(N2C3CC[C@H]2CC(OCc2c(-c4c(C)cccc4C)noc2C2CC2)C3)n1` (stereo partly drawn) [Example 30-16], the pEC50 is 7.62. The result for `COc1cc(C(=O)O)cc2sc(N3C4CC[C@H]3CC(OCc3c(-c5c(F)cccc5Cl)noc3C3CC3)C4)nc12` (stereo partly drawn) [Example 30-17] reads 9.15; that for `O=C(O)c1ccc(N2[C@@H]3CC[C@H]2C[C@@H](OCc2c(-c4c(F)cccc4Cl)noc2C2CC2)C3)nc1` [Example 30-18], 8.22. Then `Cc1cc(C(=O)O)nc(N2C3CC[C@H]2CC(OCc2c(-c4c(F)cccc4Cl)noc2C2CC2)C3)n1` (stereo partly drawn) [Example 30-19], with 7.64.

As to `COc1cc(C(=O)O)cc2sc(N3[C@@H]4CC[C@H]3C[C@@H](OCc3c(-c5ccccc5Cl)noc3C3CC3)C4)nc12` [Example 30-20], the pEC50 is 9.13. The result for `O=C(O)c1ccc(N2C3CC[C@H]2CC(OCc2c(-c4ccccc4Cl)noc2C2CC2)C3)nc1` (stereo partly drawn) [Example 30-21] reads 8.52; that for `Cc1cc(C(=O)O)nc(N2C3CC[C@H]2CC(OCc2c(-c4ccccc4Cl)noc2C2CC2)C3)n1` (stereo partly drawn) [Example 30-22], 7.72.

For the origin of these results see US9150568B2, “Compositions and methods for modulating FXR” (NOVARTIS AG, priority 2010, dated 2015).
